Experimental data from patent US20030022820A1, “IN VIVO ACTIVATION OF TUMOR-SPECIFIC CYTOTOXIC T CELLS” (priority 1995, published 2003).
Read-outs that look alike come from different tables or passages of the source.

Legend:
A2.1/K^b-Tg mice = experiment: Peptide priming of A2.1/K^b-Tg mice, lytic activity of peptide-specific CTL; format: in vivo
HLA-A2.1 = HLA-A2.1 (Homo sapiens, UniProt P04439, D140Y/D185E/D98H/E176V/E277Q/G131W/G231S/I119V/I121R/I166T/I218V/L300P/L318F/N151K/N90K/P208A/P217A/Q86G/Q94H/R138H/R169H/T345S); experiment: Competition assay for peptide binding to HLA-A2.1 (inhibition of A clone 12 lysis of M1-pulsed EA2 targets)
[1] = system: A2.1/K^b×CD8 or A2.1 transgenic (Tg) mice; experiment: Immunization of transgenic mice with Her-2/neu peptides, cytotoxicity against peptide-pulsed T2-A2.1/K^b; format: in vivo; conditions: A2.1/K^b×CD8 or A2.1 Tg mice
Procedure: A2.1/K^b×CD8 and/or A2.1 transgenic mice were immunized with each of the peptides listed in Table 6 to determine if they could stimulate A2.1-restricted CTL. Mice were immunized with a mixture of 100 mg of the Her-2/neu peptide with 120 mg “helper” peptide in 100 ml Incomplete Freund's Adjuvant (IFA).
A2.1/K^b×CD8 or A2.1 lipopolysaccharide (LPS) -blasts were prepared as stimulators for in vitro restimulation of spleen cells from immunized mice. These were prepared by incubating splenocytes from A2/K^b or A2.1 mice in complete RPMI containing 25 mg/ml LPS and 7 mg/ml dextran sulfate at 1.5×10^6 cells/ml in a total volume of 30 ml for 3 days. […] Six days following in vitro restimulation, the CTL populations were assayed for lytic activity against T2-A2/K^b target cells preincubated with the peptide used for stimulation (15 mM). The resultant Her-2/neu peptide-specific CTL populations were maintained in vitro by weekly restimulation. […]
Spleen cells from injected animals were restimulated in vitro with irradiated syngeneic cells pulsed with the peptide used for in vivo priming. Immunogenicity was evaluated by assaying these cultured cells for cytotoxicity against T2-A2.1/K^b target cells pulsed with the priming peptide. […]

[2] = E:T 60:1, T2A2/K^b targets pulsed with two mg of peptide, highest of at least three individual mice
[3] = peptide-priming of A2.1/K^b-Tg mice

## LMLSPDDIEQ [hu-wt-p53: 43-52]
A2.1/K^b-Tg mice; [2]
  Lytic Activity by Peptide-Specific CTL After Priming of A2.1/K^b-Tg Mice [Specific 51Cr release (%)]: 3%

## VLSPLPSQAM [hu-wt-p53: 31-40]
A2.1/K^b-Tg mice; [2]
  Lytic Activity by Peptide-Specific CTL After Priming of A2.1/K^b-Tg Mice [Specific 51Cr release (%)]: 0%

## LLGRDSFEV [mur-wt-p53: 261-269]
HLA-A2.1; competition with M1 (58-66)
  A2.1-binding activity / affinity, in words: highest A2.1-binding activity of all p53 peptides tested
A2.1/K^b-Tg mice; [2]
  Lytic Activity by Peptide-Specific CTL After Priming of A2.1/K^b-Tg Mice [Specific 51Cr release (%)]: 10%
A2.1/K^b-Tg mice; [3]
  A2.1/K^b-restricted peptide-specific CTL response, in words: No significant response

## DLMLSPDDI [hu-wt-p53: 42-50]
A2.1/K^b-Tg mice; [2]
  Lytic Activity by Peptide-Specific CTL After Priming of A2.1/K^b-Tg Mice [Specific 51Cr release (%)]: 0%

## RMPEAAPPV [hu-wt-p53: 65-73]
HLA-A2.1
  A2.1-binding activity / affinity, in words: high affinity
A2.1/K^b-Tg mice; [2]
  Lytic Activity by Peptide-Specific CTL After Priming of A2.1/K^b-Tg Mice [Specific 51Cr release (%)]: 85%
A2.1/K^b-Tg mice; [3]
  A2.1/K^b-restricted peptide-specific CTL response, in words: detectable

## LLPENNVLS [hu-wt-p53: 25-33]
A2.1/K^b-Tg mice; [2]
  Lytic Activity by Peptide-Specific CTL After Priming of A2.1/K^b-Tg Mice [Specific 51Cr release (%)]: 3%

## VLSPLPSQA [hu-wt-p53: 31-39]
A2.1/K^b-Tg mice; [2]
  Lytic Activity by Peptide-Specific CTL After Priming of A2.1/K^b-Tg Mice [Specific 51Cr release (%)]: 3%

## AAPPVAPAPAA [hu-wt-p53: 69-79]
A2.1/K^b-Tg mice; [2]
  Lytic Activity by Peptide-Specific CTL After Priming of A2.1/K^b-Tg Mice [Specific 51Cr release (%)]: 0%

## IISAVVGIL [Peptide H11]
[1]
  ability to stimulate a CTL response in Tg mice, in words: could not elicit a response

## AAPPVAPA [hu-wt-p53: 69-76]
A2.1/K^b-Tg mice; mouse, in vivo
  Lytic Activity by Peptide-Specific CTL After Priming of A2.1/K^b-Tg Mice [Specific 51Cr release (%)]: 0%

## ILKEPVHGV [HIV-1 RT: 476-484, reference compound]
HLA-A2.1
  (%) [inhibition of A2.1-binding of M1 (58-66)]: 72%
A2.1/K^b-Tg mice; mouse, in vivo
  A2.1/K^b-restricted peptide-specific CTL response, in words: could mount an A2.1/K^b-restricted CTL response
  Lytic Activity by Peptide-Specific CTL After Priming of A2.1/K^b-Tg Mice [Specific 51Cr release (%)]: 85%

## LLPENNVLSPL [hu-wt-p53: 25-35]
HLA-A2.1
  A2.1-binding activity / affinity, in words: high affinity
A2.1/K^b-Tg mice; [2]
  Lytic Activity by Peptide-Specific CTL After Priming of A2.1/K^b-Tg Mice [Specific 51Cr release (%)]: 47%
A2.1/K^b-Tg mice; [3]
  A2.1/K^b-restricted peptide-specific CTL response, in words: detectable

## NTFRHSVVV [hu-wt-p53: 210-218]
A2.1/K^b-Tg mice; [2]
  Lytic Activity by Peptide-Specific CTL After Priming of A2.1/K^b-Tg Mice [Specific 51Cr release (%)]: 6%
